In publication PMC5728534 (PLoS ONE, 2017):
Changes are numbered by the printed parent chain.

How the values were obtained:
OCT3 = target: T1, OCT3 (Homo sapiens, UniProt O75751); test: Ranitidine uptake in HEK293 cells overexpressing OCT3; format: in vitro ADME
T1 construct: expressed in transfected cells; host or cells: HEK293 (Flp-In)
T1 sequence (O75751 1-556): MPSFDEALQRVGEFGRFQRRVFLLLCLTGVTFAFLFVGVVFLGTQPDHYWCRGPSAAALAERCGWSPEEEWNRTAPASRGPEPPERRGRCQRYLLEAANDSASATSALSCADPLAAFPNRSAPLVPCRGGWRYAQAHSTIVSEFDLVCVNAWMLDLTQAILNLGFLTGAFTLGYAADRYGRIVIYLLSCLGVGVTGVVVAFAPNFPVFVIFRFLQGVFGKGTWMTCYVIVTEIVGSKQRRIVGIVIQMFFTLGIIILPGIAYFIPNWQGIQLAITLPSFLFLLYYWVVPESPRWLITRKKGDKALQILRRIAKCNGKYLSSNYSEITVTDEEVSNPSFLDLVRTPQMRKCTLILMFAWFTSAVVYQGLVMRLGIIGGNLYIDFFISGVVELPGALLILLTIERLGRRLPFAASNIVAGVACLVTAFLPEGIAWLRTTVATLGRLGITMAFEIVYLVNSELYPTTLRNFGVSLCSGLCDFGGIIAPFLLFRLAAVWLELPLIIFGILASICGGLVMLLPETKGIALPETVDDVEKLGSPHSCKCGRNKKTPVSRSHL
Description: (§1) HEK293 or CHO cells overexpressing the human OCT1 alleles *1A (characterized by the amino acid substitution Met408Val), *1B, *1C (Phe160Leu), *1D (Pro341Leu/Met408Val), *2 (Met420del), *3 (Arg61Cys), *4 (Gly401Ser), *5 (Gly465Arg/Met420del), *6 (Cys88Arg/Met420del), *7 (Ser14Phe), *8A (Arg488Met), *8B (Arg488Met/Met408Val), *9 (Pro117Leu), *10 (Ser189Leu), *11 (Ile449Thr), *12 (Ser29Leu), or *13 (Thr245Met), the human OCT2 reference and variant alleles (Ala270Ser), human OCT3, and the control cells (transfected with the empty pcDNA5 vector) were generated by targeted chromosomal integration using the Flp-In™ System (Life Technologies, Darmstadt, Germany).
(§2) Six hundred thousand HEK293 or CHO cells were plated per well in 12-well plates (pre-coated with poly-D-lysine) and were grown for 48 hours to reach confluence. Cells were kept at 37°C and 5% CO2 in DMEM (HEK293) or RPMI (CHO), supplemented with 10% FCS, 100 U/ml penicillin, and 100 μg/ml streptomycin. Uptake experiments were performed at pH 7.4 using HBSS supplemented with 10 mM HEPES buffer (herein referred to as HBSS+). […]
(§3) For all transport measurements, the intracellular amount of substrate was normalized to the total amount of protein of the sample as measured using the bicinchoninic acid assay [49].
(§4) For quantification of intracellular substrates, the cell debris were removed by centrifugation at 17,000 x g for 10 min. […]

[1] = Estimated ranitidine concentrations in portal vein and gastrointestinal tract; set-up: species or system human; details: highest clinical dose (300 mg) in a volume of 250 ml
Description: The concentrations were chosen to be representative for the maximal unbound plasma (Cmax) and the estimated maximal unbound portal vein concentration (Cmax port).

[2] = target: T2, OCT1*1D (Pro341Leu/Met408Val) (Homo sapiens, UniProt O15245, L160F/M408V/P341L); details: 1 and 10 μM ranitidine, 2 min
T2 sequence (O15245 1-554 L160F/P341L/M408V): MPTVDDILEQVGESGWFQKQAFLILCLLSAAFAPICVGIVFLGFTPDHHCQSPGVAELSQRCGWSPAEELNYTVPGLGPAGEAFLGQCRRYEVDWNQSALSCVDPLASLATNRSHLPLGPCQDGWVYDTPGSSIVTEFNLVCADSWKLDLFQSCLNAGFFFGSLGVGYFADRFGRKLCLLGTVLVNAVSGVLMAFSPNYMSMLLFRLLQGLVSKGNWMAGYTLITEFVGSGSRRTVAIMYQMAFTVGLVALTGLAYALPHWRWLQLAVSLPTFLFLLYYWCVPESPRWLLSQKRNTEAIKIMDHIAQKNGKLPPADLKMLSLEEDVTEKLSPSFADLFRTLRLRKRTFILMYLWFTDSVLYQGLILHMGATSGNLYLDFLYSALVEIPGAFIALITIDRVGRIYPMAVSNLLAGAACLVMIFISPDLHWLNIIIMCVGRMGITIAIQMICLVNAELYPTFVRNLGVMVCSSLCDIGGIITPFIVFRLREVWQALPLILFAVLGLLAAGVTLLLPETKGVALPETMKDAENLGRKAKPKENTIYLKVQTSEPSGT
Description: as §1, §2, §3, §4

OCT1*3 (Arg61Cys) = target: T3, OCT1*3 (Arg61Cys) (Homo sapiens, UniProt O15245, L160F/R61C)
T3 sequence (O15245 1-554 R61C/L160F): T2 sequence (O15245 1-554 L160F/P341L/M408V) with R61C, L341P, V408M
Description: as §1, §2, §3, §4

[3] = cited from earlier work
OCT1*1B = target: T4, OCT1*1B (Homo sapiens, UniProt O15245, L160F); test: in vitro; details: HEK293 cells overexpressing OCT1*1B, pH 7.4, Km (± SEM), OCT1*1B reference allele, 10-600 μM ranitidine, control-cell uptake subtracted
T4 sequence (O15245 1-554 L160F): T2 sequence (O15245 1-554 L160F/P341L/M408V) with L341P, V408M
Description: as §1
Six hundred thousand HEK293 or CHO cells were plated per well in 12-well plates (pre-coated with poly-D-lysine) and were grown for 48 hours to reach confluence. Cells were kept at 37°C and 5% CO2 in DMEM (HEK293) or RPMI (CHO), supplemented with 10% FCS, 100 U/ml penicillin, and 100 μg/ml streptomycin. Uptake experiments were performed at pH 7.4 using HBSS supplemented with 10 mM HEPES buffer (herein referred to as HBSS+). Cells were washed once with 1 ml pre-warmed HBSS+ buffer (37°C). […] Cells were washed twice with 2 ml ice-cold HBSS+ and lysed in 500 μl lysis buffer.
as §3
For quantification of intracellular substrates, the cell debris were removed by centrifugation at 17,000 x g for 10 min. Four-hundred μl of the supernatant was evaporated to dryness under nitrogen flow at 40°C. The residue was reconstituted in 200 μl 0.1% formic acid and 10 μl were injected into the LC-MS/MS. For the LC-MS/MS analysis an API 4000™ system tandem mass spectrometer (AB SCIEX, Darmstadt, Germany) was used. Samples were separated using a Brownlee SPP RP-Amide Column (4.6x100 mm, 2.7 μm; PerkinElmer), with a SecurityGuard C18, 4x2 mm pre-column (Phenomenex, Aschaffenburg, Germany).
Nonlinear regression to the Michaelis-Menten equation was performed to determine Km and vmax using GraphPad Prism version 6 (GraphPad Software Inc., La Jolla, CA, USA). Nonlinear regression to the Hill equation v = vmin+(vmax-vmin)/1+([I]/IC50)^-Hillslope was performed to determine IC50 using SigmaPlot version 12.0 (Systat Software, San Jose, California, USA).

CNC(=C[N+](=O)[O-])NCCSCc1ccc(CN(C)C)o1 [ranitidine, Ranitidine]
increase in ranitidine uptake, OCT3-overexpressing cells compared to the controls (OCT3; HEK293, 10-600 μM ranitidine, 2 min): up to 2 fold
OCT3-mediated uptake lower than the OCT1-mediated uptake of ranitidine (OCT3; at clinically relevant concentrations): more than 14 fold
[I]2, theoretical maximal gastrointestinal ranitidine concentration after oral administration [1]: 3800 µM
uptake of ranitidine compared to the reference allele [2]: no significant difference
decrease of vmax compared to the reference allele (OCT1*3 (Arg61Cys)): more than 50%
portion eliminated unchanged via renal excretion ([3]; after oral administration): approximately half
oral bioavailability [3]: 50–60%
time to maximal plasma concentrations after administration [3]: two to three
[I]1, mean unbound ranitidine steady state total Cmax ([3]; highest clinical dose (300 mg)): 2200 nM
bioavailability in hepatic dysfunction ([3]; increase from 50%): 70%
volume of distribution ([3]; no reference given): ~1.4 L/kg
Km at 2 min (OCT1*1B): 62.9 µM
